Data set [1] can be described thus: in vitro. Particulars: mouse, B16 cells.
Description: Cytotoxicity in mouse B16 cells assessed as cell viability at 10 uM after 72 hrs
The subject of data set [2] is B16. The experiment in a line: cells. Particulars: Mus musculus.
The subject of data set [3] is B16. In words: Ratio of kojic acid IC50 to compound IC50 for inhibition of melanogenesis in mouse B16 cells. Format: functional.
In data set [4] the target is T1, Tyrosinase (Agaricus bisporus, UniProt O42713).
T1 sequence (O42713 whole entry): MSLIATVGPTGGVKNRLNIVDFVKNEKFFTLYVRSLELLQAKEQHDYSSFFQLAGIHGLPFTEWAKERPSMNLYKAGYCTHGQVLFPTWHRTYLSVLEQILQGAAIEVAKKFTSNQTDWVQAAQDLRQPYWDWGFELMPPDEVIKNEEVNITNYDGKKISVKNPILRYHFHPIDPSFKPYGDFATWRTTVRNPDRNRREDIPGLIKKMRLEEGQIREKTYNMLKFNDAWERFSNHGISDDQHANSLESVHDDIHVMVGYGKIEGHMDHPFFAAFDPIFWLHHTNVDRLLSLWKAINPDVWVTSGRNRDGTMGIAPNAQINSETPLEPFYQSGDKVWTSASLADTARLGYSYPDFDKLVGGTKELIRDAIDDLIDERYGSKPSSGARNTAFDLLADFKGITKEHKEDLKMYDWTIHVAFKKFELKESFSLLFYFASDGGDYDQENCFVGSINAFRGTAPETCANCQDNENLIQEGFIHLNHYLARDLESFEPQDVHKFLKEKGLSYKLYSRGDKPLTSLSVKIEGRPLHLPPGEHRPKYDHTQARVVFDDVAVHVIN
The experiment in a line: Inhibition of mushroom tyrosinase.

Data set [5] addresses T2, Tyrosinase (Agaricus bisporus) (UniProt O42713).
T2 sequence (whole entry): T1 sequence (O42713 whole entry)
The experiment in a line: Inhibition of mushroom tyrosinase at 1 uM.

The nature of data set [6]: Cytotoxicity in mouse B16 cells assessed as cell viability at 1 uM after 72 hrs. It counts as cell-based. Conditions: read-out: Activity.
Data set [7] relates to B16. The experiment in a line: Antimelanogenic activity in mouse B16 cells assessed as inhibition of melanogenesis at 1 uM. It counts as functional.
Data set [8] concerns the target T2, Tyrosinase (Agaricus bisporus). In words: Ratio of kojic acid IC50 to compound IC50 for mushroom tyrosinase.
In data set [9] the test system is B16. In words: Antimelanogenic activity in mouse B16 cells assessed as inhibition of melanogenesis at 3 uM. Format: functional.

One may read the IC50 as the concentration that inhibits the measured activity by half. Read a low IC50 as greater potency. Usually inhibition stands for how much of the control response was suppressed.

`COc1cc(OC)c(C23CC4CC(CC(C4)C2)C3)cc1C(=O)NCc1ccc(O)cc1O` yielded a viability at 72 h, 10 µM in [1] of 95%. In addition, the IC50 in [2] came out at 1.1 µM; in [4], 900 nM. Further, in [3], the “Ratio IC50” value is given as 200.

The molecule `O=C(NCc1ccc(O)cc1)c1cc(C23CC4CC(CC(C4)C2)C3)c(O)cc1O` had an inhibition in data set [5] of under 5%.

In data set [2], `CCCCc1ccc(O)cc1O` [RUCINOL] came in with an IC50 of 20 µM.

The molecule `COc1ccc(CNC(=O)c2cc(C34CC5CC(CC(C5)C3)C4)c(O)cc2O)c(OC)c1` came in with an inhibition in data set [5] of under 5%.

Regarding `COc1cc(O)c(C(=O)NCc2ccc(O)cc2O)cc1C12CC3CC(CC(C3)C1)C2`, in data set [1], the viability at 72 h, 10 µM came out at 100%. Further, the IC50 in data set [2] was determined as 1.8 µM; in [4] it was 800 nM. For the same molecule, the “Ratio IC50” value in data set [3] is listed as 200.

Consider `COc1ccc(C(=O)NCc2ccc(O)cc2O)cc1C12CC3CC(CC(C3)C1)C2`, for which the viability at 72 h, 10 µM in data set [1] was determined as 44%. Moreover, the viability at 72 h, 1 µM in data set [6] is 100%. Moreover, the inhibition at 1 µM in data set [7] is under 5%. In [4], this molecule displayed an IC50 of 1400 nM.

As to `O=C(NCc1ccc(O)cc1O)c1ccc(O)cc1O`, in [1], the viability at 72 h, 10 µM was 100%. In addition, in data set [8], the Ratio IC50 came to 30. Besides, the concentration for half-maximal inhibition (IC50) in [2] came to 26.7 µM; in data set [4] it was 900 nM.

Regarding `COc1ccc(C(=O)NCc2ccc(O)cc2O)c(O)c1`, in data set [1], the viability at 72 h, 10 µM came to 96%. Further, in data set [8], the Ratio IC50 came out at 30. Besides, the values for the IC50 in [2] and in data set [4] were 27.6 µM and 300 nM, respectively.

Regarding `O=C(NCc1ccc(O)cc1O)c1ccc(O)c(C23CC4CC(CC(C4)C2)C3)c1`, the viability at 72 h, 10 µM in data set [1] was 41%. Besides, in [6], the viability at 72 h, 1 µM is 99%. The inhibition at 1 µM in [7] is under 5%. For the same molecule, it took 900 nM to reach half-maximal inhibition in data set [4] (IC50).

The molecule `O=C(NCc1ccccc1O)c1cc(C23CC4CC(CC(C4)C2)C3)c(O)cc1O` returned an inhibition in data set [5] of under 5%.

Regarding `COc1ccc(C(=O)NCc2ccc(O)cc2O)c(OC)c1`, in data set [1], the viability at 72 h, 10 µM came out at 100%. Also, the Ratio IC50 in [8] worked out at 30. In addition, the IC50 turned out to be 14.2 µM in data set [2] and 400 nM in data set [4].

Molecule `O=C(NCc1ccc(O)cc1O)c1cc(C23CC4CC(CC(C4)C2)C3)c(O)cc1O` came in with a viability at 72 h, 10 µM in data set [1] of 62%. In addition, in [6], the viability at 72 h, 1 µM was 86%. Further, the inhibition at 3 µM in [9] is 90%. Besides, the inhibition at 1 µM in data set [7] is under 5%. The IC50 in data set [4] is 1100 nM.
